# Patent US9133434B1, “Grass endophyte” (Cropmark Seeds Ltd., priority 2012, dated 2015)
# Key:
# [1] = test system: Neotyphodium uncinatum, var.UNC1; assay: Effect of benomyl on growth, comparison of varieties; assay type: cell-based; settings: comparison of the two varieties
# Procedure: (§1) Plates of PDA containing different concentrations of the fungicide benomyl were prepared as outlined by Christensen et al. (1991). Benlate(Methyl[1-[(butylamino)carbonyl]-1H-benzimidazol-2-yl]carbamate) (50% WP) was added to PDA prior to sterilization. Concentrations of benomyl were adjusted to 1, 5, 10, 50 and 100 ppm. Five duplicate plates were inoculated with a colony plug.
# The two varieties were similar in tested characteristics of colony sporulation, colony sectoring, colony color (upper surface), colony shape, colony immersion or margin in agar, colony texture, aerial mycelium density and type, and effect of benomyl on growth. The two varieties differed in […] and rate of growth.
# [2] = test system: Neotyphodium uncinatum, var. U2; assay: Colony: resistance to benomyl on growth (PDA plates with benomyl); assay type: cell-based; settings: benomyl 1, 5, 10, 50 and 100 ppm in PDA, recorded after 4 weeks; scale absent or very weak / weak / medium / strong / very strong
# Procedure: Neotyphodium uncinatum, var. U2 was isolated from line FP102 of Festuca pratensis (Meadow fescue). Line FP102 originally came from Norway in 1999. Characteristics for Neotyphodium uncinatum, var. U2 were determined and compared with other varieties. For these tests, the endophytic fungus isolated was cultured on 1.5% (w/v) potato dextrose agar at 20° C. in the dark (Christensen M J, Latch G C M, Tapper S A 1991: Variation within isolates of Acremonium endophytes from perennial ryegrasses. Mycol. Res. 95: 918-923). Length of cultivation was generally standardized at 4 weeks, but may be varied according to the isolate. Five plates of each strain were grown.
# as §1
structure (smiles),measurement,setting,value
"CCCCNC(=O)n1c(NC(=O)OC)nc2ccccc21 [benomyl, Methyl[1-[(butylamino)carbonyl]-1H-benzimidazol-2-yl]carbamate]","effect of benomyl on growth, var.UNC1 compared with var. U2",[1],similar
same,Colony: resistance to benomyl on growth,[2],strong
